How the values were obtained:
[1] = Non Patent Literature 33; cited from earlier work
mouse RORγ = biological target: T1, mouse RORγ (Mus musculus, UniProt P51450); assay: In-vitro reporter gene assay for inhibitory activity against RORγ transcription, Test Method B (pFA/mRORγ LBD / pG5-Luc in CHO cells); assay type: cell-based; conditions: luciferase reporter, CHO cells, 2 days
T1 construct: from Ile251 to Lys516 for mouse RORγ; expressed in transfected cells; host or cells: CHO cells (transient co-transfection with pG5-Luc)
T1 sequence (P51450 251-516): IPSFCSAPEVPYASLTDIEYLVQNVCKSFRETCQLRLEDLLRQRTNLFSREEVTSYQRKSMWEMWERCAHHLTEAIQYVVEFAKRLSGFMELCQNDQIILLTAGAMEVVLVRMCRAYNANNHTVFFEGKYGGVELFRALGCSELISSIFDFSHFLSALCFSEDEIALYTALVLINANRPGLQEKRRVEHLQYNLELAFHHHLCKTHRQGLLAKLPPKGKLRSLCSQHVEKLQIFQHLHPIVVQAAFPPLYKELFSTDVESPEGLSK
Experimental: (§1) In-Vitro Assay for Inhibitory Activity Against RORγ Transcription
(§2) Inhibitory activity against RORγ transcription was assessed for test compounds by either of the following Test Method A or B of reporter gene assay.
(§3) cDNAs encoding human and mouse RORγ ligand binding domains (LBD) were obtained based on the sequences of human RORγ (Genbank registered number NM_005060.3) and mouse RORγ (Genbank registered number NM_011281.2) (LBD sequences: from Ser253 to Lys518 for human RORγ; from Ile251 to Lys516 for mouse RORγ).
(§4) LBD cDNAs of human and mouse RORγ were inserted into pFA-CMV vector (Agilent Technologies, Inc.), which expresses GAL4-DNA binding domain fusion protein. The resulting plasmids are hereinafter referred to as pFA/hRORγ plasmid and pFA/mRORγ plasmid, respectively.
(§5) pFA/hRORγ plasmid or pFA/mRORγ plasmid was transiently co-transfected into Chinese hamster ovary cells (CHO cells) with pG5-Luc (Promega), reporter plasmid expressing firefly luciferase in a GAL4-dependent manner.
(§6) TransIT (Registered trademark) CHO Transfection Kit (Mirus) was used to co-transfect CHO cells with the plasmids. One day prior to the assay, CHO cells were suspended in HAM F-12 Nutrient medium containing 10% (v/v) fetal bovine serum and seeded at 5.5×10^6 cells per 225 cm^2 cell culture flask each. 72 μL of TransIT (Registered trademark) CHO reagent was added into a 2 mL tube containing 1.55 mL of Opti-MEM, and then mixed and incubated at room temperature for 10 minutes. 50.4 μL of a plasmid solution containing 300 ng of pFA/hRORγ plasmid, 12000 ng of pG5-Luc plasmid, and 11700 ng of pcDNA3.1 plasmid were added into the tube and mixed gently. In the case of mouse assay, a plasmid solution containing 300 ng of pFA/mRORγ plasmid, 12000 ng of pG5-Luc plasmid, and 11700 ng of pcDNA3.1 plasmid was added, instead. The mixture was incubated at room temperature for 10 minutes. 12 μL each of CHO Mojo Reagent were then added into each tube and mixed gently. The mixture was incubated at room temperature for 10 minutes. The resulting transfection reagent was applied to the cell culture. After incubation at 37° C., 5% CO2 for 4 hours, the plasmid-transfected CHO cells were harvested by trypsin treatment. The collected cells were resuspended in culture medium and plated into a 384-well-white plate at 8,000 cells/35 μL/well. The plate was let stand at room temperature for 1 hour and then further incubated at 37° C., 5% CO2 for 3 hours. A test compound was dissolved in dimethyl sulfoxide (DMSO) to obtain a concentration of 10 mM. Each solution was serially diluted with DMSO and further diluted with culture medium just before use. The test compound solutions were added to the cells in the plate at 6 different concentrations. The final concentration of DMSO was 0.2% (v/v). After the addition of test compound, the cells were incubated at 37° C., 5% CO2 for 2 days.
(§7) RORγ transcriptional activity was detected as the intracellular luciferase activity using SteadyLite HTS Reporter Gene Assay System (Perkin Elmer). SteadyLite Reagent was diluted 2.5-fold with Extension buffer (10 mM Tricine, 0.2% (w/v) bovine serum albumin, 0.02% (v/v) Tween-20) to obtain a luciferase substrate solution. Two days after the addition of test compound, 40 μL each of the luciferase substrate solution was added into the 384-well-plate. After the incubation at room temperature for 10 minutes, luminescence of each well was measured with a microplate reader. The luciferase activity derived from the luminescence count in a vehicle-control well treated with 0.2% DMSO alone was defined as 100%, and the luciferase activity after treatment of the test compound was calculated as a percentage, %-of-control, based on the value of the vehicle-control. An EC50 value of the test compound was calculated by curve fitting. The luminescence counts at the concentration of test compound where cytotoxicity was observed were excluded from data analysis. […]

human RORγ = biological target: T2, human RORγ (Homo sapiens, UniProt P51449); assay: In-vitro reporter gene assay for inhibitory activity against RORγ transcription, Test Method B (pFA/hRORγ LBD / pG5-Luc in CHO cells); assay type: cell-based; conditions: luciferase reporter, CHO cells, 2 days
T2 construct: from Ser253 to Lys518 for human RORγ; expressed in transfected cells; host or cells: CHO cells (transient co-transfection with pG5-Luc)
T2 sequence (P51449 253-518): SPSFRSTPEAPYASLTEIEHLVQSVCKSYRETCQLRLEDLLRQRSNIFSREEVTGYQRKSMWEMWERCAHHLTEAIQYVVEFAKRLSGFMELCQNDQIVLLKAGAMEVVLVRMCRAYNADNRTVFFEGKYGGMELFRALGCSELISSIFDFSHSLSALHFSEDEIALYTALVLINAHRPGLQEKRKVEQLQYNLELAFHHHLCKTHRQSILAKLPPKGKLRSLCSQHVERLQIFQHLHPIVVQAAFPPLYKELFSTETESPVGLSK
Experimental: as §1, §2, §3, §4, §5, §6, §7

SMILES | EC50 (mouse RORγ) [µM] | EC50 (human RORγ) [µM] | bone loss in experimental periodontitis model [1]
CCS(=O)(=O)c1ccc(CC(=O)Nc2cc(Cl)c(-c3ccccc3OC(F)(F)F)c(Cl)c2)cc1 [GSK805] |  |  | diminished bone loss
C[C@@H]1CCC2(c3ccc(CCC(C)(C)C)c(Cl)c3)NC(=O)N(C34CC(C(=O)O)(C3)C4)C=C2[C@@H]1C (single isomer, unassigned) [Example 106] | 4.78 | 4.4 | 
CC(C)(C)CCc1ccc([C@]23CCC(F)(F)CC2=CN(C24CC(C(=O)O)(C2)C4)C(=O)N3)cc1Cl (single isomer, unassigned) [Example 86] | 4.37 | 4.94 | 
CC1C2=CN(C34CC(C(=O)O)(C3)C4)C(=O)NC2(c2ccc(CCC(C)(C)C)c(Cl)c2)CC1(C)C (single isomer, unassigned) [Example 34] | 0.169 | 0.087 | 
CC1CC[C@@]2(c3ccc(CCC(C)(C)C)c(Cl)c3)NC(=O)N(C34CC(C(=O)O)(C3)C4)C=C2C1 (single isomer, unassigned) [Example 90] | 0.023 | 0.022 | 

Continued by falling EC50 (mouse RORγ), values first:

EC50 (mouse RORγ) [µM] | EC50 (human RORγ) [µM] | SMILES | bone loss in experimental periodontitis model [1]
5.11 | 4.36 | CC(C)C1CC[C@]2(c3ccc(CCC(C)(C)C)c(Cl)c3)NC(=O)N(C34CC(C(=O)O)(C3)C4)C=C2C1 (single isomer, unassigned) [Example 98] | 
4.19 | 3.71 | CC1CC[C@]2(c3ccc(CCC(C)(C)C)c(Cl)c3)NC(=O)N(C34CC(C(=O)O)(C3)C4)C=C2C1 (single isomer, unassigned) [Example 89] | 
